The text below walks through data of publication doi:10.1101/2022.09.01.506269v1 (biorxiv, 2022).

The IC50 is the point on the concentration scale where inhibition reaches its midpoint. Higher therefore signals weaker potency in that assay. The term inhibition denotes the relative decrease from the control value, in per cent.

Each structure is given as a SMILES string. Read-outs that look alike come from different tables or passages of the source.

One experiment concerns the target CYP3A4 (Homo sapiens, UniProt P08684). The experiment is described as follows: CYP3A4 inhibition, method not given. It counts as biochemical.
In a further experiment the target is T1, choline transporter (Homo sapiens, UniProt Q9GZV3).
T1 sequence (Q9GZV3 1-580): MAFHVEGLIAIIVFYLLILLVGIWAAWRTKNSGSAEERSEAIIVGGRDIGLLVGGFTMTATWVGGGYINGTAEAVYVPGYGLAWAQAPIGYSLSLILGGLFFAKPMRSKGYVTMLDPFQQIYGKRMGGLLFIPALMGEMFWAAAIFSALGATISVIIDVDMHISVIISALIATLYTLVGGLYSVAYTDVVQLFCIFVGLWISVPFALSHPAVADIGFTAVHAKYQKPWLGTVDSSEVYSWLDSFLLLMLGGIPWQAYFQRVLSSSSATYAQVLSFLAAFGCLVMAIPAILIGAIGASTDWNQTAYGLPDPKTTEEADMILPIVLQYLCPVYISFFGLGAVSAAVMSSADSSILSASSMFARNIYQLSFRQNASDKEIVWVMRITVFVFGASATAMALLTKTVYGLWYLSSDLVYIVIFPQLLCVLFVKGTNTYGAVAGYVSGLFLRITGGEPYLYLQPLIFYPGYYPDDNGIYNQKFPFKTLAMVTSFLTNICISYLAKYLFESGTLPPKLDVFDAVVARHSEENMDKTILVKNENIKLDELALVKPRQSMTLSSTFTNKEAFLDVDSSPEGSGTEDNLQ
The experiment in a line: biochemical.

Another experiment has as its target D1 (Homo sapiens, UniProt P21728). The experiment in a line: biochemical.
The mark [1] stands for this setting: read-out: XEN601 % inhibition at 1 µM.
The mark [2] stands for this setting: read-out: XEN602 % inhibition at 1 µM.

D1, sequence (P21728 whole entry): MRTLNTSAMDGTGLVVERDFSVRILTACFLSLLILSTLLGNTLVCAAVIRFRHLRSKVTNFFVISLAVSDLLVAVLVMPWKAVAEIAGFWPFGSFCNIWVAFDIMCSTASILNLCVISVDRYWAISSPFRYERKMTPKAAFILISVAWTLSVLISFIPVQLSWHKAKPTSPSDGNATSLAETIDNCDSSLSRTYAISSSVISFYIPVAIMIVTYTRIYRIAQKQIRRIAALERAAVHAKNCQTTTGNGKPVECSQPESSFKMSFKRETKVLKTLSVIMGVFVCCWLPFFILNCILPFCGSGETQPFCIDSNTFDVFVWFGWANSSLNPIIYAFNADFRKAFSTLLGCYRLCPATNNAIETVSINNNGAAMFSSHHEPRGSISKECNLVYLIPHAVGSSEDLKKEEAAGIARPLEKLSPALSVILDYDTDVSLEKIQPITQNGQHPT
CYP3A4, sequence (P08684 2-503): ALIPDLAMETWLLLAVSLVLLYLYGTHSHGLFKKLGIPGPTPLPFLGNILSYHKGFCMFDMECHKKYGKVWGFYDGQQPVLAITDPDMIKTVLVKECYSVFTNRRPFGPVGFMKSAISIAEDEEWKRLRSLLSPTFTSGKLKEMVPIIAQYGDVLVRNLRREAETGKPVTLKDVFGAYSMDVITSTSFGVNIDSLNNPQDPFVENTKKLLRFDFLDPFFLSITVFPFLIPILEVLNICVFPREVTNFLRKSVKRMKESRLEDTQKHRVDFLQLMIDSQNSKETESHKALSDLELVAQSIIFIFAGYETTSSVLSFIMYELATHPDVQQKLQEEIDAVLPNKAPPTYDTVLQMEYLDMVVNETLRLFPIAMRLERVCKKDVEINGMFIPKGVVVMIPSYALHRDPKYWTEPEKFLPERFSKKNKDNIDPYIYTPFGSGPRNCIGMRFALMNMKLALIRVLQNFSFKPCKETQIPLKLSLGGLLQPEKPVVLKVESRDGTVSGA

On to `N=C(N)SCc1ccccc1Oc1ccc(-c2ccc(Oc3ccccc3CSC(=N)N)c(CSC(=N)N)c2)cc1CSC(=N)N` [compound 5, XEN601], for which the IC50 against CYP3A4 was less than 1000 nM. For the same compound, the inhibition at 1 µM amounted to 62% at choline transporter (setting [1]) and 69% at D1 (setting [1]).

For the compound `N=C(N)SCc1cc(F)ccc1Oc1ccc(-c2ccc(Oc3ccc(CCCN4CCNCC4)cc3CSC(=N)N)c(CSC(=N)N)c2)cc1CSC(=N)N` [compound 6, XEN602], the inhibition at 1 µM amounted to 52% on choline transporter (setting [2]) and 59% at D1 (setting [2]).
